Test results published in patent US20240228659A1, “NEW METHOD TO IMPROVE NK CELLS CYTOTOXICITY” (INSERM (INSTITUT NATIONAL DE LA SANTÉ ET DE LA RECHERCHE …, priority 2021, published 2024).

Experiments:
Type in all cases: in vivo, mouse
NXS2 cells = test: murine NXS2 neuroblastoma experimental liver metastasis model in A/J mice; conditions: FIG. 1B; 8 mice/group; day 27 after i.v. NXS2 inoculation; 8B6 25 μg i.v. twice weekly x3 weeks; 13-cis-RA 10 mg/kg per os
Description: FIG. 1. 13-cis-Retinoic acid enhances anti-neuroblastoma activity of anti-O-acetylated GD2 ganglioside in vivo. (A) Mice (8 animal/group) were inoculated with 2.5×10^5 NXS2 cells by i.v. injections on day 0. Antibody 8B6 treatment was performed on days 3, 7, 10, 14, 17, and 21 (cumulative dose=150 μg). 13-cis-retinoic acid treatment was given at 10 mg/kg, per os, five times weekly, day 17 to 21. Mice were euthanized 27 days post-tumor cell inoculation. (B) Anti-tumor efficacy was evaluated by determining the number of liver metastasis. Mean liver metastasis number±SEM of each treatment group, as depicted (** p<0.01; Mann-Whitney test). (C) The mice body weight was recorded for each treatment group, as indicated. Mean weight (mean±SEM, n=8) of mice on day 0 was defined as 100% weight. Weight in each group remained stable for the period of the treatment.
FIG. 4. […] (B) Anti-tumor efficacy was evaluated by determining the liver metastasis on fresh specimen. […] (C) The mice body weight was recorded for each treatment group, as indicated. […]
The anti-neuroblastoma efficacy of mAb 8B6 and chemotherapeutic treatments was determined in the murine NXS2 neuroblastoma experimental liver metastasis model in A/J mice, previously described (28). […] Mice were euthanized on day 27 post-tumor challenge, and anti-tumor efficacy was evaluated by determining the number of liver metastasis.

CD45+NKp46+CD3− NK cells = test: tumor NK cell infiltration, flow cytometry; conditions: FIG. 3B; PBS control 0.88±0.2%
Excerpt: FIG. 3. 13-cis-Retinoic acid combined with mAb 8B6 increases PD-1+NK cell tumor infiltration. (A) Dot plots histograms showing the gating strategy used for flow cytometric identification of CD45+NKP46+CD3− NK cells in tumor cells. (B) Fold increase of total count of NK cells in tumor cells were achieved by flow cytometry of cells gated, as indicated. […] (C) Percentage of PD-1+NK cells in tumor cells from the indicated group.
Liver metastasis were dissociated with the mouse tumor dissociation kit and the gentle MACS dissociator (Miltenyi) according to the manufacturer's instructions. Single cell suspensions were obtained by passing through a 70 μm pore-size cell MACS SmartStrainer (Miltenyi). […]
(§1) For flow cytometry analysis, cells were first incubated with a mAb specific for mouse CD16/CD32 to prevent nonspecific binding of primary antibodies against FcγR, and then, were labeled with specific conjugated mAbs. […] Quantification of total cell numbers by flow cytometry was performed done using fluorescent beads (C36950, Thermo Fisher, Waltham, MA, USA). Flow cytometric analysis were performed using an BD FACSCanto II (BD Bioscience) and data were analyzed using FlowJo software (Flowjo LLC, Oregon, OR, USA). The fold increase of tumor NK cell infiltration was calculated by dividing the number of NK cell infiltrated of each condition by the mean of the number of NK cell.

PD-L1 = PD-L1 tumor cell surface expression, flow cytometry of dissociated liver metastasis; conditions: FIG. 2B; residual liver metastasis; untreated mice 31.3±7.19%
Description: FIG. 2. Effect of retinoic acid alone or in combination with 8B6 therapy on O-acetyl-GD2 and PD-L1 expression in vivo. Tumor cells harvested from the indicated group were stained with either OAcGD2-specific mAb (A) or PD-L1-specific mAb (B). (A) Flow cytometry analysis was performed with single cell suspension obtained from the liver metastasis harvested from mice in FIG. 1 to assess the OAcGD2 expression, as indicated. […] The level of OAcGD2 expression remains stable after treatments (ns, not significant; p>0.5). (B) Single cell suspension from (A) were also tested for PD-L1 tumor cell surface expression, as indicated. The left panel indicates the percentage of PD-L1 positive tumor cells. […]
as §1

**Q.** What does the source list for CC1=C(/C=C/C(C)=C/C=C/C(C)=C\C(=O)O)C(C)(C)CCC1 [13-cis-RA, 13-cis-retinoic acid]?
**A.** number of liver metastasis (mean±SEM) (NXS2 cells): 14.40±0.98; intratumoral CD45+NKp46+CD3− NK cells (CD45+NKp46+CD3− NK cells): 2.49±0.29%; percentage of PD-L1+ tumor cells (PD-L1): 39.45±9.76%
